From patent US7173019B2, “Linked cyclitols and their polysulfated derivatives” (The Australian National University, priority 2001, dated 2007) come the findings set out here.

The structures appear in SMILES notation. Values after ≈ are worked out from the molar mass of the structure shown. Where two headings read alike, the source gives them in different places.

In test [1] the target is bFGF (Homo sapiens, UniProt P09038). Kind of test: Biacore biosensor: inhibition of bFGF binding to immobilised heparin and heparan sulfate. As to conditions: for Inhibition of binding of bFGF (HS) / Inhibition of binding of bFGF (Hep): inhibitor 0.034 μM, bFGF 0.034 μM. The gist of the method:
(§1)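 Biotinylated heparin (1 μg/ml) or heparan sulfate was captured on neutravidin-coupled CM5 biosensor chips. Test compound and growth factor were preincubated 2 to 5 min, then growth-factor binding to the immobilised glycosaminoglycan was monitored for about 5 min; values are IC50 (μM) or % inhibition of binding.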

In test [2] the test system is rat aorta fragments. Kind of test: In vitro angiogenesis inhibition assay. To be noted: inhibitor 100 μg/ml, control 90. The test is classed as cell-based. The method, then: The ability of linked cyclitol compounds to inhibit angiogenesis in vitro was conducted using the assay essentially as described in the present applicant's International Patent Application No. PCT/AU95/00105 (Publication No. WO 95/23968), the entire content of which is incorporated herein by cross reference. The only changes to the procedure described in PCT/AU95/00105 were that the assays were conducted using rat aorta fragments rather than human placental vessel fragments.
All potential inhibitors were tested at 100 μg/ml with PI-88 also being tested at 10 μg/ml. The tabulated data represent means of 4 culture wells for each experiment. Significant inhibition of angiogenesis is indicated with a single asterisk while double asterisks denote highly significant inhibition.
The compounds were also tested at the same purity as in Example 15 save that the second entries for 4b and 4j relate to data obtained with higher purity compounds than the compounds used for the first data entries of each.

The target of test [3] is T1, IL-8 (Homo sapiens, UniProt P10145).
T1 sequence (P10145 21-99): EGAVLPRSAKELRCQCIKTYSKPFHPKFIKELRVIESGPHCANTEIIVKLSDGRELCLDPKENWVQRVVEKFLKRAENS
Kind of test: Biacore biosensor: inhibition of IL-8 binding to immobilised heparin and heparan sulfate. To be noted: inhibitor 1.0 μM, IL-8 0.068 μM; for Inhibition of binding of IL-8 (HS): immobilised heparan sulfate; for Inhibition of binding of IL-8 (Hep): immobilised heparin. The method, boiled down:
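Biacore 2000 with neutravidin-coupled CM5 chips capturing biotinylated heparin (1 μg/ml) or heparan sulfate. Compound and IL-8 preincubated 2 to 5 minutes before injection; binding to the immobilised glycosaminoglycan monitored for about 5 minutes.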

Test [4] addresses T2, human platelet heparanase (Homo sapiens, UniProt Q9Y251).
T2 construct: 10 ng of purified human platelet heparanase; from tissue; host or cells: human platelets
T2 sequence (Q9Y251 158-543 limits assumed): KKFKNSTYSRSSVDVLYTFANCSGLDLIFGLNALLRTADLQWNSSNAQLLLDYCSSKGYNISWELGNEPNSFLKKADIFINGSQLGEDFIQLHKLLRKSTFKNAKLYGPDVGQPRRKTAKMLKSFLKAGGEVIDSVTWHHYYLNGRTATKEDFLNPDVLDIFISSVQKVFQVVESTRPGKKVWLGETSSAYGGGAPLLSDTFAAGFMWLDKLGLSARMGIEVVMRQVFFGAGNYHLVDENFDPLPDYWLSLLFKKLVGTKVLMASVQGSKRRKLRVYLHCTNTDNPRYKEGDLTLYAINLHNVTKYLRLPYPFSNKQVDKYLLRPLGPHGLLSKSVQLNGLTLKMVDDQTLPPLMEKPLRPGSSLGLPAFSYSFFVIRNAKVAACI
T2 sequence (Q9Y251 36-109 limits assumed): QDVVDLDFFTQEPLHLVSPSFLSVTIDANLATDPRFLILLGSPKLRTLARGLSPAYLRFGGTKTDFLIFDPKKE
Kind of test: Heparanase inhibition, 3H-radiolabelled HS cleavage assay. In kind it is biochemical. To be noted: for Relative inhibition (%): based on a comparison with heparin with 100% inhibition at 30 μg/ml; for EC50: heparanase inhibition. The gist of the method: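 Purified human platelet heparanase (10 ng) with ^3H-labelled porcine mucosal HS […] in 50 mM sodium acetate pH 5.0 plus BSA, 30 min; stopped by freezing. Products separated from substrate on histidine-rich glycoprotein–sepharose minicolumns; inhibition expressed relative to heparin at 30 μg/ml taken as 100%.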

For test [5], the target named is aFGF (Homo sapiens, UniProt P05230). Kind of test: Biacore biosensor: inhibition of aFGF binding to immobilised heparin and heparan sulfate. To be noted: inhibitor 0.034 μM, aFGF 0.025 μM; for Inhibition of binding of aFGF (HS): immobilised heparan sulfate; for Inhibition of binding of aFGF (Hep): immobilised heparin. The gist of the method: as §1
Chain of aFGF (P05230 whole entry, species assumed): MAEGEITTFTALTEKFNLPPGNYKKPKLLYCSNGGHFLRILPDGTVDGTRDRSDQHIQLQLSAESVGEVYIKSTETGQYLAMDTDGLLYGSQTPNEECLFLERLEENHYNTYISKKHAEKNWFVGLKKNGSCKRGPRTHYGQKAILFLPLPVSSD
In test [6] the target is T3, VEGF (Homo sapiens, UniProt P15692).
T3 sequence (P15692 27-191 isoform P15692-4): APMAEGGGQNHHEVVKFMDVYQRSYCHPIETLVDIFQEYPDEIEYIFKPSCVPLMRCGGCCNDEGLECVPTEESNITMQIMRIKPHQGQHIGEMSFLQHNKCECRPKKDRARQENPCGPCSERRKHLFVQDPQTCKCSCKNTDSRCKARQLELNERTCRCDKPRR
Kind of test: Biacore biosensor: inhibition of VEGF binding to immobilised heparin and heparan sulfate. As to conditions: inhibitor 0.034 μM, VEGF 0.025 μM; for Inhibition of binding of VEGF (HS): immobilised heparan sulfate; for Inhibition of binding of VEGF (Hep): immobilised heparin. The method, boiled down:
as §1

Test [7] concerns the target T4, human leukocyte Cathepsin G (Homo sapiens, UniProt P08311).
T4 construct: human leukocyte Cathepsin G (100 ng protein); from tissue; host or cells: human leukocytes
T4 sequence (P08311 21-244): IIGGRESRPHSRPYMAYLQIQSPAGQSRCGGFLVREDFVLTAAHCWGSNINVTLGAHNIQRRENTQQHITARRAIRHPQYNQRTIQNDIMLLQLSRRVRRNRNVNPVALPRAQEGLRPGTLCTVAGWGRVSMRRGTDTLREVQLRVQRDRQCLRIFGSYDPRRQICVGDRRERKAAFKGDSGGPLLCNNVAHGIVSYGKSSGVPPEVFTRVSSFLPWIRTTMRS
Kind of test: Cathepsin G inhibition, fluorogenic substrate, 96 well assay. In kind it is biochemical. As to conditions: human leukocyte cathepsin G 100 ng, 37° C., 60 min, pH 6.6. The gist of the method:
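Inhibitor mixed with fluorogenic substrate MeOSuc-ala-ala-pro-phe-AMAC and human leukocyte Cathepsin G (100 ng) in 50 mM NaOAc pH 6.6, 50 mM NaCl, 0.1% Brij 35; 60 min at 37° C. Stopped with 250 mM acetic acid; fluorescence ex 360/em 460 nm. Value is concentration giving 50% inhibition.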

Where [8] appears, read: means of 4 culture wells per experiment, * significant, ** highly significant inhibition.

Chain of bFGF (P09038 134-288 limits assumed, species assumed): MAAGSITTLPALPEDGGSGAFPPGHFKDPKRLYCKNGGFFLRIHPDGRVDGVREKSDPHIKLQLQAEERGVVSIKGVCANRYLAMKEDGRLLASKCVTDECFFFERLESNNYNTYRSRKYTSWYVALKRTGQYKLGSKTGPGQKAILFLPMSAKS

For the compound `O=S(=O)(O)OC(CN([C@H]1[C@H](OS(=O)(=O)O)[C@H](OS(=O)(=O)O)[C@@H](OS(=O)(=O)O)[C@@H](OS(=O)(=O)O)[C@@H]1OS(=O)(=O)O)[C@H]1[C@H](OS(=O)(=O)O)[C@H](OS(=O)(=O)O)[C@@H](OS(=O)(=O)O)[C@@H](OS(=O)(=O)O)[C@@H]1OS(=O)(=O)O)CN([C@H]1[C@H](OS(=O)(=O)O)[C@H](OS(=O)(=O)O)[C@@H](OS(=O)(=O)O)[C@@H](OS(=O)(=O)O)[C@@H]1OS(=O)(=O)O)[C@H]1[C@H](OS(=O)(=O)O)[C@H](OS(=O)(=O)O)[C@@H](OS(=O)(=O)O)[C@@H](OS(=O)(=O)O)[C@@H]1OS(=O)(=O)O` [Compound 5l], the “Inhibition of binding of bFGF (HS)” value in test [1] (immobilised heparan sulfate) is recorded as 43% (HS). In addition, in test [1] (immobilised heparin), the “Inhibition of binding of bFGF (Hep)” value is on record as 33% (Hep). In test [2] (setting [8]), the “% Growth” value came out at 80%. For the same compound, in test [3], the “Inhibition of binding of IL-8 (HS)” value is listed as 42% (HS) and the “Inhibition of binding of IL-8 (Hep)” value was 52% (Hep). In addition, in test [4], the “Relative inhibition (%)” value was determined as 85% and the EC50 turned out to be 12 µg/mL (≈ 4.96 µM). In test [5], the “Inhibition of binding of aFGF (HS)” value is 54% (HS) and the “Inhibition of binding of aFGF (Hep)” value is 67% (Hep). In test [6], the “Inhibition of binding of VEGF (HS)” value is on record as 11% (HS) and the “Inhibition of binding of VEGF (Hep)” value is recorded as 13% (Hep). For the same compound, the “Amount for 50% inhibition” value in test [7] was 0.53 µg/mL.
`O=S(=O)(O)OC1C=CC(N(CCCCCCN(C2C=CC(OS(=O)(=O)O)C(OS(=O)(=O)O)C2OS(=O)(=O)O)C2C=CC(OS(=O)(=O)O)C(OS(=O)(=O)O)C2OS(=O)(=O)O)C2C=CC(OS(=O)(=O)O)C(OS(=O)(=O)O)C2OS(=O)(=O)O)C(OS(=O)(=O)O)C1OS(=O)(=O)O` (stereo not drawn) [Compound 4b]: the “Inhibition of binding of bFGF (HS)” value in test [1] (immobilised heparan sulfate) is recorded as 48% (HS). Besides, the “Inhibition of binding of bFGF (Hep)” value in test [1] (immobilised heparin) is 52% (Hep). For the same compound, the “% Growth” value in test [2] (setting [8]) came out at 70%. In addition, the “% Growth” value in test [2] (second entry, higher purity compound, * significant inhibition) is listed as 65* %. Further, in test [3], the “Inhibition of binding of IL-8 (HS)” value was 48% (HS) and the “Inhibition of binding of IL-8 (Hep)” value is on record as 55% (Hep). Besides, in test [4], the “Relative inhibition (%)” value came to 45% and the concentration for a half-maximal effect (EC50) was found to be 40 µg/mL (≈ 25.2 µM). Moreover, in test [5], the “Inhibition of binding of aFGF (HS)” value is given as 47% (HS) and the “Inhibition of binding of aFGF (Hep)” value is reported as 44% (Hep). Besides, in test [6], the “Inhibition of binding of VEGF (HS)” value is reported as 32% (HS) and the “Inhibition of binding of VEGF (Hep)” value was 45% (Hep). The “Amount for 50% inhibition” value in test [7] is 0.22 µg/mL.
As for `O=S(=O)(O)OC1C=CC(N(Cc2cccc(CN(C3C=CC(OS(=O)(=O)O)C(OS(=O)(=O)O)C3OS(=O)(=O)O)C3C=CC(OS(=O)(=O)O)C(OS(=O)(=O)O)C3OS(=O)(=O)O)c2)C2C=CC(OS(=O)(=O)O)C(OS(=O)(=O)O)C2OS(=O)(=O)O)C(OS(=O)(=O)O)C1OS(=O)(=O)O` (stereo not drawn) [Compound 4d], the “Inhibition of binding of bFGF (HS)” value in test [1] (immobilised heparan sulfate) is recorded as 68% (HS). Further, the 50% inhibitory concentration (IC50) in test [1] (immobilised heparan sulfate, read-out: IC50, inhibition of bFGF binding (HS)) was 23 nM. Moreover, the “Inhibition of binding of bFGF (Hep)” value in test [1] (immobilised heparin) is recorded as 52% (Hep). Also, the IC50 in test [1] (immobilised heparin, read-out: IC50, inhibition of bFGF binding (Hep)) is 32 nM. The “% Growth” value in test [2] (setting [8]) came to 67%. In test [3], the “Inhibition of binding of IL-8 (HS)” value is 50% (HS) and the “Inhibition of binding of IL-8 (Hep)” value was 57% (Hep). Besides, in test [4], the “Relative inhibition (%)” value stood at 75% and the EC50 was found to be 15 µg/mL (≈ 9.32 µM). In test [5], the “Inhibition of binding of aFGF (HS)” value was 65% (HS) and the “Inhibition of binding of aFGF (Hep)” value is recorded as 65% (Hep). In test [6], the “Inhibition of binding of VEGF (HS)” value is listed as 40% (HS) and the “Inhibition of binding of VEGF (Hep)” value is listed as 44% (Hep). In test [7], the “Amount for 50% inhibition” value was determined as 0.43 µg/mL.
For the compound `O=S(=O)(O)OC1C=CC(N(Cc2ccc(CN(C3C=CC(OS(=O)(=O)O)C(OS(=O)(=O)O)C3OS(=O)(=O)O)C3C=CC(OS(=O)(=O)O)C(OS(=O)(=O)O)C3OS(=O)(=O)O)cc2)C2C=CC(OS(=O)(=O)O)C(OS(=O)(=O)O)C2OS(=O)(=O)O)C(OS(=O)(=O)O)C1OS(=O)(=O)O` (stereo not drawn) [Compound 4e], the “Inhibition of binding of bFGF (HS)” value in test [1] (immobilised heparan sulfate) is 61% (HS). Besides, in test [1] (immobilised heparin), the “Inhibition of binding of bFGF (Hep)” value is listed as 49% (Hep). Besides, in test [2] (setting [8]), the “% Growth” value was 55* %. Also, in test [3], the “Inhibition of binding of IL-8 (HS)” value is reported as 65% (HS) and the “Inhibition of binding of IL-8 (Hep)” value is 62% (Hep). Further, in test [4], the “Relative inhibition (%)” value came to 70% and the EC50 worked out at 9 µg/mL (≈ 5.59 µM). Also, in test [5], the “Inhibition of binding of aFGF (HS)” value is listed as 63% (HS) and the “Inhibition of binding of aFGF (Hep)” value is listed as 66% (Hep). Besides, in test [6], the “Inhibition of binding of VEGF (HS)” value is 51% (HS) and the “Inhibition of binding of VEGF (Hep)” value is given as 63% (Hep). In addition, the “Amount for 50% inhibition” value in test [7] is 0.30 µg/mL.
